# In paper PMC12764492, “Therapeutic 6-thio-deoxyguanosine inhibits telomere elongation in cancer cells by inducing a non-productive stalled telomerase complex” (Nature Communications, 2025):
# Target: T1, DNA polymerase δ (Pol δ) holoenzyme (Homo sapiens, UniProt P28340)
# T1 construct: gene POLD1; recombinant human Pol δ heterotetramer; with other Pol δ subunits (heterotetramer); PCNA
# Experiment: primer extension by reconstituted Pol δ holoenzyme with 6-thio-dGTP ([…]) replacing dGTP; inserted, not significantly inhibitory
# Assay type: biochemical
# T1 sequence (P28340 whole entry): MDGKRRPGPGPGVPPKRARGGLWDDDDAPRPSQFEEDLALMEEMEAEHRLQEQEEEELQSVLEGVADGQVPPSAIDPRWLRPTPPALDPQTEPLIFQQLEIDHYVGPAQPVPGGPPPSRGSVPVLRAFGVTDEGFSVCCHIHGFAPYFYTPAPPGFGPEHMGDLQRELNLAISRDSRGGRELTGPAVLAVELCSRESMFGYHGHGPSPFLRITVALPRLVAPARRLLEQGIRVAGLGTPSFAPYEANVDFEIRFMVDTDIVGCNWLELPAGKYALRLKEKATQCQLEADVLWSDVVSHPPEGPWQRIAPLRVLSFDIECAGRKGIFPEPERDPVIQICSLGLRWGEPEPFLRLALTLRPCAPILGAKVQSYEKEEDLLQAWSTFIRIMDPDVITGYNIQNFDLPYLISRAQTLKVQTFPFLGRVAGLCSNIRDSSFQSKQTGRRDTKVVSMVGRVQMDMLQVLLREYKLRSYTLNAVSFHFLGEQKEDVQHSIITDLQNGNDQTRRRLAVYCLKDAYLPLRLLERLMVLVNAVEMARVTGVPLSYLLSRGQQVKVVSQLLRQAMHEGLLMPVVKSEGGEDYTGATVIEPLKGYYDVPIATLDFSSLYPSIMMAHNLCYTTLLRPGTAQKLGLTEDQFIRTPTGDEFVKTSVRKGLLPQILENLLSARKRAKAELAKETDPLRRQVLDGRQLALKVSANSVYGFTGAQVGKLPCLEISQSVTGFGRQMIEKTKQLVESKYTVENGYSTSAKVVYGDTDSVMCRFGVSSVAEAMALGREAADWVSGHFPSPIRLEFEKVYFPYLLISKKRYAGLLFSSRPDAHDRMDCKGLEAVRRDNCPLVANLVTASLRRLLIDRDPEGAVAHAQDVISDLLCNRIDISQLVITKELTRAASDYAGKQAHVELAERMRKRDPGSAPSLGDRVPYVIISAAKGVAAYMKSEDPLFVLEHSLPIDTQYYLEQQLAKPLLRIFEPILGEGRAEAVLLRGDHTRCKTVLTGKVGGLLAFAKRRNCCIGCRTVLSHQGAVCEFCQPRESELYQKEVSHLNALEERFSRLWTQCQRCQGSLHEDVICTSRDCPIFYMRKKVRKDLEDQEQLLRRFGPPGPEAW
# T1 sequence (P49005 whole entry partner): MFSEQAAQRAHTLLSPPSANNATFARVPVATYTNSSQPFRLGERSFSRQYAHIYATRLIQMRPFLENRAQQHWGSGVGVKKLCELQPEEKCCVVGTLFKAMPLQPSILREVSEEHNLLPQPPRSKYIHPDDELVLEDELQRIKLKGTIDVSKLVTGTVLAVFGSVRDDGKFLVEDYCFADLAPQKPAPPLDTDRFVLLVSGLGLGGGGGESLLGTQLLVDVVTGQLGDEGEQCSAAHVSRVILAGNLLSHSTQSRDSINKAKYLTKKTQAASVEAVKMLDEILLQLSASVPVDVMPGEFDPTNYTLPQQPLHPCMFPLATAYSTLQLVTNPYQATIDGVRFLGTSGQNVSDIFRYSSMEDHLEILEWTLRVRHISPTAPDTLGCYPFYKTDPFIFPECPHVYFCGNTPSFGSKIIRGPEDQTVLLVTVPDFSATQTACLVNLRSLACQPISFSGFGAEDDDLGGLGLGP
# T1 sequence (Q15054 2-466 partner): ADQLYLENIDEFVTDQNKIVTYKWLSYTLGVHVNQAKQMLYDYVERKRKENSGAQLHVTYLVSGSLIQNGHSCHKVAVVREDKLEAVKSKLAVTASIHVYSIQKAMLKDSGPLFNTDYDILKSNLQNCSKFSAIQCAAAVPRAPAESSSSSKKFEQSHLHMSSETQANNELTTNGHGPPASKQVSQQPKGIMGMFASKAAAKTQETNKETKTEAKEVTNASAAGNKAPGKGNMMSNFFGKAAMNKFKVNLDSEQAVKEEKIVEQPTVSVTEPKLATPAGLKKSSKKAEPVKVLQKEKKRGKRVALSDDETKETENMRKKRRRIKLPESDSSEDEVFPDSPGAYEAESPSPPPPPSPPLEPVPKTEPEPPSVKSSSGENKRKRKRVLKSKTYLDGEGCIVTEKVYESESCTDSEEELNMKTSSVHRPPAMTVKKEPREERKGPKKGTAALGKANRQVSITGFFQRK
# T1 sequence (Q9HCU8 whole entry partner): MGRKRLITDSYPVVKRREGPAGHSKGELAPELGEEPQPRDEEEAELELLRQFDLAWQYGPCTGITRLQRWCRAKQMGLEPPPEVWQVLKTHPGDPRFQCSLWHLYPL
# T1 sequence (P12004 whole entry partner): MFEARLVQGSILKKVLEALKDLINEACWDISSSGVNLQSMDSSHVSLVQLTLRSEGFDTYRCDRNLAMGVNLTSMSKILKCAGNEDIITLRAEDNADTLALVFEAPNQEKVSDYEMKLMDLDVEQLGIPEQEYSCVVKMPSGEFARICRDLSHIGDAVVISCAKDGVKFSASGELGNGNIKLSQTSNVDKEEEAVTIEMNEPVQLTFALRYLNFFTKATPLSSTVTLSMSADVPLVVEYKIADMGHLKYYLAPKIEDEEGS
smiles,measurement,value
Nc1nc2c(ncn2[C@H]2C[C@H](O)[C@@H](COP(=O)(O)OP(=O)(O)OP(=O)(O)O)O2)c(=S)[nH]1 [6-thio-dGTP],primer extension by reconstituted Pol δ holoenzyme with 6-thio-dGTP (9.7 μM) rep,The substitution of 6-thio-dGTP for dGTP did not significantly alter primer extension
